This is an account of results in article PMC10915964, “Identifying ligands for the PHD1 finger of KDM5A through high-throughput screening†” (RSC Chemical Biology, 2023).

Where no end group is shown, it is not given here. 5‑FAM = 5-carboxyfluorescein

Test [1] deals with T1, GST-PHD1 (PHD1 finger of KDM5A) (Homo sapiens, UniProt P29375).
T1 construct: GST-PHD1(S287-E344); made in house; host or cells: E. coli BL21 (DE3), pET41a
T1 sequence (P29375 287-344): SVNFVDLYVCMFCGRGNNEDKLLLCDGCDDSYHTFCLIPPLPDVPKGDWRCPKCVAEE
The experiment in a line: Competitive-binding fluorescence polarization (FP) assay, displacement of 5-FAM H3K4me0 10-mer from GST-PHD1. As to conditions: for inhibition at 1000 µM / %I at 1 mM: 1 mM compound, quadruplicate (n = 1 for R1 = OBn; n = 2 for R1 = Me); for inhibition at 1000 µM: read-out: %I at 1 mM; for IC50: HTS assay conditions, read-out: approximate IC50. An excerpt: Fluorescence polarization (FP) has been widely used as a biophysical method to detect and quantify disruptions in protein–protein and protein–peptide interactions.[33,34] It served as the primary assay in the high-throughput screening (HTS) campaign to identify ligands for the PHD1 finger (Fig. 1b). The FP assay includes a GST-labeled […] construct and its H3K4me0 10-mer peptide substrate (Fig. 1c and d).[21,22] […]
Fig. 2 Dose-dependent inhibition of GST-PHD1 − H3 tail interaction by screen hits obtained from HTS of the NCI collection. […] DMSO is used as the negative (−) control (0% inhibition).
Fluorescence polarization high-throughput screening
To test the activity of purified GST-PHD1(S287-E344), direct-binding and competitive-binding fluorescence polarization (FP) were done, as previously described.3,4 For screening, GST-PHD1(S287-E344) was diluted in buffer (50 mM HEPES, pH 7.5, 50 mM KCl, 0.01% Tween-20, 1 mM TCEP) with 20 nM 5-carboxyfluorescein-labeled H3 10-mer peptide and with or without 0.1% bovine gamma globulin (BGG). This was treated as the assay buffer (with 0.1% BGG) and also as the negative control. For the positive control, 120 μM unlabeled H3K4 10-mer peptide was added to the assay buffer. The assay buffer was dispensed using the EL406 Biotek liquid dispenser onto black, round-bottom low volumes 384-microwell plates (Corning 4514) to a final volume of 10 μL per well. DMSO (10 nL or 50 nL) or screening compounds at 10 nL (ChemBridge Premium Diversity collection at 10 μM final) or 50 nL (ML fragments and NCI libraries at 50 μM final) was added to plates containing the assay buffer using the BioMek liquid handler/dispenser. The final DMSO in the samples was either 0.1% or 0.5%. Fluorescence polarization measurements were performed directly and after 45 minutes of incubation at room temperature using a Perkin Elmer Envision and XCite 2105 multimode microplate reader equipped with a stacker. Excitation light was delivered with a xenon flash lamp at 480/30 nm (BW) and emission was collected after passing through an emission filter (535/25 nm). For fluorescence polarization experiments, two 535/40 nm filters (S, P) and dual dichroic D505/D535 nm mirrors were used.
For FP-based assay optimization, the assay signal dynamic range was evaluated using the negative and positive control buffers with varying amounts of GST-PHD1 (0.5, 1, 1.5, or 2 μM) in the presence or absence of 0.1% BGG. For each condition, buffer was dispensed into 3 columns of a 384-well plate (48 wells each) using the BioMek liquid dispenser and the FP signal was recorded. The Z′ value reports on the assay robustness by reflecting both the dynamic range and the data variation associated with assay measurements.5 The Z′ value is given by the following equation: […]
where σ represents the standard deviation, PC represents the positive control, NC represents the negative control, and μ represents the mean value of the FP signal.
Screen results were analyzed using the UCSF SMDC web application called HiTS […]
(http://smdc.ucsf.edu/hits/). […]
equal to 3 standard deviations of the mean percent inhibition values, where the negative control is set to 0% inhibition and the positive control is set to 100% inhibition. Cheminformatics analysis on the screen hits was done using DataWarrior, an open-source program for data visualization and analysis with chemical intelligence.6 The Tanimoto coefficient was used to gauge the similarity and diversity of screen hits and cluster any compounds with greater than 75% similarity.
Screen hits were repurchased when available. Structurally similar derivatives were purchased when exact compounds were not available for purchase. Compound purity was confirmed by LCMS. All compounds were dissolved in DMSO-d6 to a final concentration of 40 mM unless otherwise specified. All putative screen hits were confirmed in dose-response using the competitive binding fluorescence polarization […]
assay. […]
For orientation: In fluorescence polarisation assays a small probe gives low polarisation when free and higher when bound to something large.

Test [2] concerns the target T2, 15N-labeled PHD1 (KDM5A) (Homo sapiens, UniProt P29375).
T2 construct: PHD1(S287-E344) construct; GST (N, cleaved yes); made in house; host or cells: E. coli BL21 (DE3), M9 minimal media with 15N ammonium chloride
T2 sequence (P29375 287-344): T1 sequence (P29375 287-344)
The experiment in a line: 2D 1H-15N HSQC NMR binding assay. The conditions noted are these: for perturbation of some residues: most perturbed residues. Here is the method: The binding of the ChemBridge screen hits to PHD1 was further evaluated using 2D ^1H–^15N HSQC NMR spectroscopy. This direct binding method allowed us to monitor binding by observing any ligand-induced changes in the previously assigned ^1H–^15N PHD1 amino acid resonances.[12] The HSQC spectra of 50 μM ^15N-labeled PHD1 with DMSO were overlaid with the spectra of the ^15N-labeled PHD1 incubated with 1 mM compound. […] Compound 715 958 was insoluble in the NMR buffer at this concentration and was not evaluated. […]
Nuclear magnetic resonance (NMR) binding assays
A PHD1(S287-E344) construct was used in NMR studies, as previously described.4 Briefly, the GST-PHD1 fusion construct was expressed in M9 minimal media containing 15N ammonium chloride. The labeled GST-PHD1 was purified and the GST tag was cleaved as described in the Expression of GST-PHD1(S287-E344) and GST tag removal section. For 2D 1H, 15N Fast HSQC (FHSQC) binding experiments, 50 μM 15N-labeled PHD1 was used and spectra were measured after the addition of DMSO-d6 or compound at 1 mM in DMSO-d6 for single concentration experiments. The NMR samples were prepared in 50 mM HEPES pH 7.5, 150 mM KCl buffer with 5 mM BME, 100 μM ZnCl2, and 10% D2O at a final concentration of 2.4% DMSO-d6. The HSQC spectra were collected on a 600 MHz Bruker Avance NEO spectrometer equipped with an actively shielded Z-gradient […] TCI cryoprobe using programs from the pulse program library (TopSpin 4.0.6). FHSQC acquisition parameters were: NS = 8, acquisition time = 0.106 s 1H, 0.060 s 15N. All experiments were carried out at 298 K (calibrated with 4% v/v MeOH […]
For 2D 1H, 15N FHSQC titration experiments, 50 μM 15N-labeled PHD1 was incubated with 0, 0.5, 1, 2, or 4 mM B2 sample with a final concentration of 2.9% DMSO-d6 for all samples. The NMR samples were prepared in 50 mM HEPES pH 7.5, 150 mM KCl buffer with 5 mM BME, 100 μM ZnCl2, and 5% D2O. The 2D 15N FHSQC spectra for the titration series were recorded at 298 K on a Bruker 800 MHz AVANCE-I spectrometer equipped with an actively shielded Z-gradient TCI cryoprobe using programs from the pulse program library (TopSpin 4.0.8). FHSQC acquisition parameters were: NS = 8, acquisition time = 0.082 s 1H, 0.045s 15N. The analysis of the chemical shift perturbation of the amide cross-peaks during the titration with the ligand was performed using CCPNMR Analysis software and use PHD1 with 2.9% DMSO-d6 as the reference.7 Apo PHD1 backbone assignments were imported from the BMRB (entry 30808).4 The chemical shift perturbations for all the NMR experiments were calculated in CCPNMR v3.2, which uses the following equation:
∆ chemical shift = ∆H2 + 0.15(∆N)2

Test [3] addresses GST-labeled PHD1(S283-E344) construct of KDM5A (two Zn(II) ions bound (PHD zinc finger)). The experiment in a line: fluorescence polarisation; competitive displacement of 5-FAM H3 10-mer (10 nM) from GST-PHD1 (2 μM) by unlabeled H3 10-mer peptide; triplicate measurements. The conditions noted are these: both partners purified.
For test [4], the target named is GST-labeled PHD1(S283-E344) construct of KDM5A. Description: fluorescence polarisation; direct binding of C-terminal 5-FAM H3 10-mer peptide to GST-PHD1; triplicate measurements.

Usually Ki stands for a measure of affinity in units of concentration, obtained from inhibition or displacement. Broadly, the IC50 is the concentration that gives 50% inhibition. As usually defined, the Kd is a measure of binding affinity in units of concentration.

Regarding `CC(=O)c1c(C)oc2ccc(NS(=O)(=O)c3ccc(C(N)=O)cc3)cc12` [Compound B3, 4-(N-(3-acetyl-2-methylbenzofuran-5-yl)sulfamoyl)benzamide], in test [1], the inhibition at 1000 µM was 12%.
Regarding `CCc1nnc(NS(=O)(=O)c2ccc(NC(=O)c3ccc(OC)c(OC)c3)cc2)s1` [988 385], in test [2] (50 μM 15N PHD1, 1 mM compound), the “average shifts (CSP on PHD1)” value is recorded as ≤ 0.002 ppm and the “Δδ of residue N304” value is > 0.01 ppm.
As to `CC(=O)c1c(C)oc2ccc(NS(=O)(=O)c3cccc(Cl)c3)cc12` [Compound B7, N-(3-acetyl-2-methylbenzofuran-5-yl)-3-chlorobenzenesulfonamide], the inhibition at 1000 µM in test [1] came out at 13%.
Take `C[C@H](N)C(=O)N[C@@H](CCCNC(=N)N)C(=O)N[C@H](C(=O)N[C@@H](CCCCN)C(=O)N[C@@H](CCC(N)=O)C(=O)N[C@H](C(=O)N[C@@H](C)C(=O)N[C@@H](CCCNC(=N)N)C(=O)N[C@@H](CCCCN)C(=O)N[C@@H](CO)C(=O)O)[C@@H](C)O)[C@@H](C)O` [unlabeled H3 peptide, reference compound]: the Ki in test [1] (displacement of 5-FAM H3 10-mer (10 nM) from GST-PHD1 (2 μM)) came to 0.95 ± 0.14 µM.
Consider `Cc1c(CCC(=O)N2CCCC2C(=O)O)c(=O)oc2c(C)c(O)ccc12` (stereo not shown) [991 830], for which the “average shifts (CSP on PHD1)” value in test [2] (50 μM 15N PHD1, 1 mM compound) is recorded as ≤ 0.002 ppm.
As to `CC(=O)c1c(C)oc2ccc(NS(=O)(=O)c3ccc(C(=O)O)cc3)cc12` [Compound B1, 4-(N-(3-acetyl-2-methylbenzofuran-5-yl)sulfamoyl)benzoic acid], in test [1], the “%I at 1 mM” value was 38% and the inhibition at 1000 µM was 38%.
For `CC(=O)c1c(C)oc2ccc(NS(=O)(=O)c3cccc(C(=O)O)c3)cc12` [Compound B2, 3-(N-(3-acetyl-2-methylbenzofuran-5-yl)sulfamoyl)benzoic acid], in test [1], the “%I at 1 mM” value is 45% and the inhibition at 1000 µM was 45%. Besides, the IC50 in test [1] (FP concentration-response) was ~1300 µM. In test [2] (B2 at 0.5, 1, 2 and 4 mM with 50 μM 15N PHD1), the “chemical shift perturbations on PHD1 in titration” value is reported as “chemical shift perturbations are small”.
`COC(=O)c1cccc(S(=O)(=O)Nc2ccc3oc(C)c(C(C)=O)c3c2)c1` [Compound B6, methyl 3-(N-(3-acetyl-2-methylbenzofuran-5-yl)sulfamoyl)benzoate]: the inhibition at 1000 µM in test [1] came to 4%.
For `Cc1oc2ccc(NS(=O)(=O)c3ccc(C(=O)O)cc3)cc2c1C(=O)OCc1ccccc1` [990 099], in test [1], the inhibition at 1000 µM came to 45%. The IC50 in test [1] (FP concentration-response) is > 1500 µM. In addition, in test [2] (50 μM 15N PHD1, 1 mM compound), the “average shifts (CSP on PHD1)” value is 0.0025–0.0033 ppm and the “perturbation of some residues” value is given as “greater than 0.008 ppm”.
With `CCOC(=O)c1ccc(S(=O)(=O)Nc2ccc3oc(C)c(C(C)=O)c3c2)cc1` [Compound B5, ethyl 4-(N-(3-acetyl-2-methylbenzofuran-5-yl)sulfamoyl)benzoate], in test [1], the inhibition at 1000 µM was 11%.
Take `CSc1nnc2c(n1)OC(c1ccncc1)Nc1ccccc1-2` (stereo not shown) [516 969]: in test [2] (50 μM 15N PHD1, 1 mM compound), the “average shifts (CSP on PHD1)” value is recorded as 0.0025–0.0033 ppm, the “Δδ of residue Cys322” value came to 0.009 ppm and the “perturbation of some residues” value was “greater than 0.008 ppm”.
`CC(=O)c1c(C)oc2ccc(N(C(C)=O)S(=O)(=O)c3ccc(C(=O)O)cc3)cc12` [7 917 645]: the inhibition at 1000 µM in test [1] worked out at 30%.
Consider `O=C(C1CC1)N1CCc2sc(S(=O)(=O)Nc3cccc(Cl)c3F)cc2C1` [990 856], for which the “average shifts (CSP on PHD1)” value in test [2] (50 μM 15N PHD1, 1 mM compound) is reported as ≤ 0.002 ppm.
Turning to `CC(=O)c1c(C)oc2ccc(NS(=O)(=O)c3cccc(C(N)=O)c3)cc12` [Compound B4, 3-(N-(3-acetyl-2-methylbenzofuran-5-yl)sulfamoyl)benzamide], the inhibition at 1000 µM in test [1] was determined as 9%.
Consider `Cc1oc2ccc(NS(=O)(=O)c3ccccc3)cc2c1C(=O)OCc1ccccc1` [Compound 8018-7366], for which the inhibition at 1000 µM in test [1] was 6%. Further, in test [1] (FP concentration-response, compared with 516 969 or 990 099), the “potency relative to parent hit” value is “drastically reduced potency”.

B1: unlabeled H3 10-mer peptide (peptide, UniProt P68431 2-11, looked up)
peptide: ARTKQTARKS
notes: histone H3 N-terminal tail 10-mer with unmodified K4 (H3K4me0); also called unlabeled H3K4me0 10-mer; H3K4me0 10-mer peptide
B1 registered a Ki in test [3] of 0.95 ± 0.14 µM.
In test [4], ARTKQTARKS-{5‑FAM} [C-terminal 5-FAM H3 10-mer peptide, P68431 2-11] gave a Kd of 0.95 µM.
